# In patent publication US9233086B2 (THE REGENTS OF THE UNIVERSITY OF MICHIGAN, priority 2010, dated 2016):
# Like-named read-outs stand apart in the source and are kept apart here. *1 amine or outer side, *2 acyl side, *3 side chain or, on linkers, in order; H or OH if unused. Where a SMILES comes first, the peptide text is derived from it. [ ]: non-standard residue; d: D form. The star is where a group is joined. Isovaleryl = CC(C)CC(=O)*; Isobutyryl = CC(C)C(=O)*; Ac4c = NC1(C(=O)O)CCC1; Pentanoyl = CCCCC(=O)*; PhAc = O=C(Cc1ccccc1)*; Aib = CC(C)(N)C(=O)O; CO = O=C([*:1])[*:2]; NHBn = c1ccc(CN*)cc1; Butyryl = CCCC(=O)*; Bz = O=C(c1ccccc1)*; NHPh = c1ccc(N*)cc1; NHiPr = CC(C)N*; For = O=C*
# Target: WDR5 (Homo sapiens (Human), UniProt P61964)
# Assay: FP based competitive binding assay to WDR5
# Conditions: for fold increase of binding affinity to WDR5 on acetylation of the free amino group: vs corresponding unacetylated H3 peptide
# Procedure: Another aspect of the invention is development of a Fluorescent Polarization (FP) based competitive binding assay. […] Next, the millipolarization (mP) values were measured at different time points in order to determine equilibrium duration and stability.
# Accordingly, the optimal protein concentrations for the competitive assay was investigated.
# All the FP based experiments were performed in MICROFLUOR® 2 Black, “U” Bottom, 96-well Microtiter Plates (ThermoSci.) and FP was measured as mP units in a microplate reader (Tecan Ultra) with excitation at 485 nm and emission at 530 nm. The Kd of the tracers and the IC50 value of the inhibitors were calculated using GraphPad Prism 4 software.
# The binding affinities of the synthetic peptides shown in the study were measured using this competitive binding assay. A pre-incubated complex solution of WDR5Δ23 and the tracer in 120 μl assay buffer were added to dilutions of the test compound in 5 μl DMSO, giving final concentrations of WDR5Δ23 and the tracer of 4 nM and 0.6 nM, respectively. […] The plates were incubated with shaking at room temperature. The mP values were measured after five hours of incubation and Ki values were calculated using the equation described previously(31).
# [1] = 4 nM WDR5Δ23, 0.6 nM 10mer-Thr-FAM tracer, Ki calculated by equation of ref. 31, read-out: Ki ± SD
# [2] = 4 nM WDR5Δ23, 0.6 nM 10mer-Thr-FAM tracer, read-out: IC50 ± SD
# [3] = read-out: Binding Affinity to WDR5 (IC50 ± SD), Table 5 peptidomimetics
Structure (SMILES),IC50 [3] [nM],other results
"CC(=O)N[C@@H](C)C(=O)N[C@@H](CCCNC(=N)N)C(N)=O [Ac-2mer, Ac-AR-NH2] (Ac-Ala-Arg-NH2)",,Ki [1]: 27000 ± 1400 nM; IC50 [2]: 125000 ± 6000 nM
"CC(=O)N[C@@H](C)C(=O)N[C@@H](CCCNC(=N)N)C(=O)N[C@@H](C)C(N)=O [Ac-3mer, Ac-ARA-NH2] (Ac-Ala-Arg-Ala-NH2)",,Ki [1]: 120 ± 10 nM; IC50 [2]: 540 ± 30 nM
"CC(=O)N[C@@H](C)C(=O)N[C@@H](CCCNC(=N)N)C(=O)N[C@@H](C)C(=O)N[C@@H](CCC(=O)O)C(N)=O [Ac-4mer, Ac-ARAE-NH2] (Ac-ARAE-NH2)",,Ki [1]: 80 ± 10 nM; IC50 [2]: 400 ± 50 nM
CC(=O)N[C@@H](C)C(=O)N[C@@H](CCCNC(=N)N)C(=O)N[C@@H](C)C(=O)N[C@@H](CCC(=O)O)C(=O)N[C@H](C(=O)N[C@@H](Cc1c[nH]cn1)C(=O)N[C@@H](CC(C)C)C(=O)N[C@@H](CCCNC(=N)N)C(=O)N[C@@H](CCCCN)C(=O)N[C@@H](CO)C(N)=O)C(C)C [Ac-10mer],,IC50 [2]: 20 ± 4 nM; times more potent than the WIN peptide (Ki ratio vs WIN): 50; Ki (read-out: Ki): 3 nM
"CC(=O)N[C@@H](C)C(=O)N[C@@H](CCCNC(=N)N)C(=O)N[C@H](C(N)=O)[C@@H](C)O [Ac-H3-3mer, Ac-ART-NH2] (Ac-Ala-Arg-Thr-NH2)",,IC50 [2]: 80 ± 3 nM; Ki (read-out: Ki): 20 nM; fold increase of binding affinity to WDR5 on acetylation of the free amino group: 1500
CC(=O)N[C@@H](C)C(=O)N[C@@H](CCCNC(=N)N)C(=O)N[C@H](C(=O)N[C@@H](CCCCN)C(=O)N[C@@H](CCC(N)=O)C(=O)N[C@H](C(=O)N[C@@H](C)C(=O)N[C@@H](CCCNC(=N)N)C(=O)N[C@@H](CCCCN)C(=O)N[C@@H](CO)C(N)=O)[C@@H](C)O)[C@@H](C)O [Ac-H3-10mer],,"IC50 [2]: 6 ± 2 nM; fold increase of binding affinity to WDR5 on acetylation of the free amino group: greater than 10,000"
"C[C@H](NC(=O)[C@H](CCCNC(=N)N)NC(=O)[C@H](C)NC=O)C(N)=O [CHO-3mer, CHO-ARA-NH2] (For-Ala-Arg-Ala-NH2)",,Ki [1]: 3200 ± 300 nM; IC50 [2]: 14900 ± 1400 nM; times less potent than Ac-3mer (ratio vs Ac-3mer): 25
CCCC[C@H](NC(=O)[C@H](C)NC(C)=O)C(=O)N[C@@H](C)C(N)=O [Compound 2A],> 1000,
CC(=O)N[C@@H](C)C(=O)N[C@@H](CCCN)C(=O)N[C@@H](C)C(N)=O [Compound 2B],> 1000,
CC(=O)N[C@@H](C)C(=O)N[C@@H](CCCCN)C(=O)N[C@@H](C)C(N)=O [Compound 2C] (Ac-Ala-Lys-Ala-NH2),> 1000,
CC(=O)N[C@@H](C)C(=O)N[C@H](C(=O)N[C@@H](C)C(N)=O)C1CCN(C(=N)N)CC1 [Compound 2G],> 10000,
CC(=O)N[C@@H](C)C(=O)N[C@@H](CCCNC(=N)N)C(=O)N[C@H](C(N)=O)[C@@H](C)O [Compound 3I] (Ac-Ala-Arg-Thr-NH2),< 1000,
CC(=O)NC1(C(=O)N[C@@H](CCCNC(=N)N)C(=O)N[C@H](C(N)=O)C(C)C)CC1 [Compound 4A],< 1000,
CC(=O)NC1(C(=O)N[C@@H](CCCNC(=N)N)C(=O)N[C@H](C(N)=O)C(C)C)CCC1 [Compound 4B],< 1000,
CC(=O)NC1(C(=O)N[C@@H](CCCNC(=N)N)C(=O)N[C@H](C(N)=O)C(C)C)CCCC1 [Compound 4C],< 1000,
CC(=O)NC1(C(=O)N[C@@H](CCCNC(=N)N)C(=O)N[C@H](C(N)=O)C(C)C)CCCCC1 [Compound 4D],< 1000,
CC(=O)N[C@H](C(=O)N[C@@H](CCCNC(=N)N)C(=O)NC1(C(N)=O)CC1)C(C)C [Compound 5A],< 10000,
CC(=O)N[C@H](C(=O)N[C@@H](CCCNC(=N)N)C(=O)NC1(C(N)=O)CCC1)C(C)C [Compound 5B],< 10000,
CC(=O)N[C@H](C(=O)N[C@@H](CCCNC(=N)N)C(=O)NC1(C(N)=O)CCCC1)C(C)C [Compound 5C],< 1000,
CC(=O)N[C@H](C(=O)N[C@@H](CCCNC(=N)N)C(=O)NC1(C(N)=O)CCCCC1)C(C)C [Compound 5D],< 10000,
CC[C@H](NC(=O)[C@H](CCCNC(=N)N)NC(=O)C(C)(C)NC(C)=O)C(N)=O [Compound 6A],< 1000,
CC(=O)NC(C)(C)C(=O)N[C@@H](CCCNC(=N)N)C(=O)NC1(C(N)=O)CCCC1 [Compound 6B],< 1000,

# More lines, main results first:
IC50 [3] [nM],Structure (SMILES),other results
< 1000,CC(=O)NC(C)(C)C(=O)N[C@@H](CCCNC(=N)N)C(=O)N[C@H](C(N)=O)[C@@H](C)O [Compound 6C] (Ac-[Aib]-Arg-Thr-NH2),
< 1000,CC[C@H](NC(=O)[C@H](CCCNC(=N)N)NC(=O)C1(NC(C)=O)CCC1)C(N)=O [Compound 6D],
< 1000,CC(=O)NC1(C(=O)N[C@@H](CCCNC(=N)N)C(=O)NC2(C(N)=O)CCCC2)CCC1 [Compound 6E],
< 1000,CC(=O)NC1(C(=O)N[C@@H](CCCNC(=N)N)C(=O)N[C@H](C(N)=O)[C@@H](C)O)CCC1 [Compound 6F] (Ac-[Ac4c]-Arg-Thr-NH2),
< 1000,CCC(CC)(NC(C)=O)C(=O)N[C@@H](CCCNC(=N)N)C(=O)NC1(C(N)=O)CCCC1 [Compound 6G],
< 1000,CC(=O)N[C@@H](C)C(=O)N[C@@H](CCCNC(=N)N)C(=O)N[C@@H](C)C(=O)NC(C)C [Compound 7A] (Ac-Ala-Arg-Ala-NHiPr),
< 1000,CCC(CC)NC(=O)[C@H](C)NC(=O)[C@H](CCCNC(=N)N)NC(=O)[C@H](C)NC(C)=O [Compound 7B],
< 1000,CC(=O)N[C@@H](C)C(=O)N[C@@H](CCCNC(=N)N)C(=O)N[C@@H](C)C(=O)NC1CCCCC1 [Compound 7C],
< 1000,CC(=O)N[C@@H](C)C(=O)N[C@@H](CCCNC(=N)N)C(=O)N[C@@H](C)C(=O)Nc1ccccc1 [Compound 7D] (Ac-Ala-Arg-Ala-NHPh),
< 1000,CC(=O)N[C@@H](C)C(=O)N[C@@H](CCCNC(=N)N)C(=O)N[C@@H](C)C(=O)NCc1ccccc1 [Compound 7E] (Ac-Ala-Arg-Ala-NHBn),
< 1000,CC(=O)N[C@@H](C)C(=O)N[C@@H](CCCNC(=N)N)C(=O)N[C@@H](C)C(=O)NC(c1ccccc1)c1ccccc1 [Compound 7F],
< 1000,CC[C@H](NC(=O)[C@H](CCCNC(=N)N)NC(=O)C1(NC(C)=O)CCC1)C(=O)NCc1ccccc1 [Compound 8A],
< 1000,CC[C@H](NC(=O)[C@H](CCCNC(=N)N)NC(=O)C1(NC(C)=O)CCC1)C(=O)NC(c1ccccc1)c1ccccc1 [Compound 8B],
< 1000,CC(C)C(=O)N[C@@H](C)C(=O)N[C@@H](CCCNC(=N)N)C(=O)N[C@@H](C)C(N)=O [Compound 9A] (Isobutyryl-Ala-Arg-Ala-NH2),
> 10000,CC(C)CC(=O)N[C@@H](C)C(=O)N[C@@H](CCCNC(=N)N)C(=O)N[C@@H](C)C(N)=O [Compound 9B] (Isovaleryl-Ala-Arg-Ala-NH2),
< 5000,CCCC(=O)N[C@@H](C)C(=O)N[C@@H](CCCNC(=N)N)C(=O)N[C@@H](C)C(N)=O [Compound 9C] (Butyryl-Ala-Arg-Ala-NH2),
> 10000,CCCCC(=O)N[C@@H](C)C(=O)N[C@@H](CCCNC(=N)N)C(=O)N[C@@H](C)C(N)=O [Compound 9D] (Pentanoyl-Ala-Arg-Ala-NH2),
< 5000,C[C@H](NC(=O)[C@H](CCCNC(=N)N)NC(=O)[C@H](C)NC(=O)C1CC1)C(N)=O [Compound 9E],
< 10000,C[C@H](NC(=O)[C@H](CCCNC(=N)N)NC(=O)[C@H](C)NC(=O)C1CCC1)C(N)=O [Compound 9F],
> 1000,C[C@H](NC(=O)[C@H](CCCNC(=N)N)NC(=O)[C@H](C)NC(=O)CC1CCCC1)C(N)=O [Compound 9G],
> 1000,C[C@H](NC(=O)[C@H](CCCNC(=N)N)NC(=O)[C@H](C)NC(=O)c1ccccc1)C(N)=O [Compound 9H] (Bz-Ala-Arg-Ala-NH2),
> 25000,C[C@H](NC(=O)[C@H](CCCNC(=N)N)NC(=O)[C@H](C)NC(=O)Cc1ccccc1)C(N)=O [Compound 9I] (PhAc-Ala-Arg-Ala-NH2),
< 100000,C[C@H](NC(=O)[C@H](CCCNC(=N)N)NC(=O)[C@H](C)NC(=O)N(C)C)C(N)=O [Compound 9J] ({NMe2-CO}-Ala-Arg-Ala-NH2),
< 10000,CNC(=O)N[C@@H](C)C(=O)N[C@@H](CCCNC(=N)N)C(=O)N[C@@H](C)C(N)=O [Compound 9K] ({NHMe-CO}-Ala-Arg-Ala-NH2),
< 1000,CC(C)C(=O)NC1(C(=O)N[C@@H](CCCNC(=N)N)C(=O)NC2(C(=O)NC(c3ccccc3)c3ccccc3)CCCC2)CCC1 [Compound 10B],
< 1000,CCC(CC)(NC(=O)C(C)C)C(=O)N[C@@H](CCCNC(=N)N)C(=O)NC1(C(N)=O)CCCC1 [Compound 10C],
